Source: patent US8748471B2, “2-alkyl-cycloalk(en)yl-carboxamides” (priority 2004, dated 2014)
Read-outs that look alike come from different tables or passages of the source.

Columns and labels:
[1] = log P determination by HPLC on reverse-phase column (C 18), acidic range pH 2.3 (EEC Directive 79/831 Annex V. A8); type: physicochemical; conditions: for logP: Table 1 (I-c); for chromatographic logP: reverse-phase HPLC column (C 18)
Experimental: The stated log P values were determined in accordance with EEC Directive 79/831 Annex V. A8 by HPLC (High Performance Liquid Chromatography) on a reverse-phase column (C 18). Temperature: 43° C. Mobile phases for the determination in the acidic range (pH 2.3): 0.1% aqueous phosphoric acid, acetonitrile; linear gradient from 10% acetonitrile to 90% acetonitrile. Calibration was carried out using unbranched alkan-2-ones (having 3 to 16 carbon atoms) with known log P values (determination of the log P values by the retention times using linear interpolation between two successive alkanones).

Venturia inaequalis = assay: Venturia test (apple)/protective; type: in vivo; conditions: protective, application rate 100 g/ha, evaluation 10 days after inoculation, 0% = control, 100% = no infection
Experimental: (§1) To produce a suitable preparation of active compound, 1 part by weight of active compound is mixed with the stated amounts of solvents and emulsifier, and the concentrate is diluted with water to the desired concentration.
To test for protective activity, young plants are sprayed with the preparation of active compound at the stated application rate. After the spray coating has dried on, the plants ate inoculated with an aqueous conidia suspension of the apple scab pathogen Venturia inaequalis and then remain in an incubation cabinet as about 20° C. and 100% relative atmospheric humidity for 1 day. The plants are then placed in a greenhouse at about 21° C. and a relative atmospheric humidity of about 90%.
(§2) Evaluation is carried out 10 days after the inoculation. 0% means an efficacy which corresponds to that of the control, whereas an efficacy of 100% means that no infection is observed.

Podosphaera leucotricha = assay: Podosphaera test (apple)/protective; type: in vivo; conditions: protective, application rate 100 g/ha, evaluation 10 days after inoculation, 0% = control, 100% = no infection
Experimental: as §1
To test for protective activity, young plants are sprayed with the preparation of active compound at the stated application rate. After the spray coating has dried on, the plants are inoculated with an aqueous spore suspension of Podosphaera leucotricha. The plants are then placed in a greenhouse at about 23° C. and a relative atmospheric humidity of about 70%.
as §2

Botrytis cinerea = assay: Botrytis test (bean)/protective; type: in vivo; conditions: protective, application rate 500 g/ha, evaluation 2 days after inoculation (size of infected areas), 0% = control, 100% = no infection
Experimental: as §1
To test for protective activity, young plants are sprayed with the preparation of active compound at the stated application rate. After the spray coating has dried on 2 small pieces of agar colonized by Botrytis cinerea are placed onto each leaf. The inoculated plants are placed in a dark chamber at about 20° C. and 100% relative atmospheric humidity.
2 days after the inoculation, the size of the infected areas on the leaves is evaluated. 0% means an efficacy which corresponds to that of the control, whereas an efficacy of 100% means that no infection is observed.

Puccinia recondita = assay: Puccinia test (wheat)/protective; type: in vivo; conditions: 240 h, protective, application rate 500 g/ha, evaluation 10 days after inoculation, 0% = control, 100% = no infection, read-out: Efficacy in %
Experimental: (§3) To produce a suitable preparation of active compound, 1 part by weight of active compound is mixed with the stated amounts of solvent and emulsifier, and the concentrate is diluted with water to the desired concentration.
To test for protective activity, young plants are sprayed with the preparation of active compound at the stated application rate. After the spray coating has dried on, the plants are sprayed with a conidia suspension of Puccinia recondita. The plants remain in an incubation cabinet at 20° C. and 100% relative atmospheric humidity for 48 hours. The plants are then placed in a greenhouse at a temperature of about 20° C. and a relative atmospheric humidity of 80%.
as §2

Alternaria solani = assay: Alternaria test (tomato)/protective; type: in vivo; conditions: protective, application rate 750 g/ha, evaluation 7 days after inoculation, 0% = control, 100% = no infection
Experimental: as §3
To test for protective activity, young tomato plants are sprayed with the preparation of active compound at the stated application rate. 1 day after the treatment, the plants are inoculated with a spore suspension of Alternaria solani and then remain at 100% relative atmospheric humidity and 20° C. for 24 h. The plants then remain at 96% relative atmospheric humidity and a temperature of 20° C.
Evaluation is carried out 7 days after the inoculation. 0% means an efficacy which corresponds to that of the control, whereas an efficacy of 100% means that no infection is observed.

[2] = pH 2.3, HPLC C18, 43° C., main diastereomer or, where several values in a cell, the individual diastereomers
[3] = pH 2.3, Table 1 (I-c), pH 2.3, HPLC C18, 43° C., main diastereomer or, where several values in a cell, the individual diastereomers, read-out: logP

Row | log P (pH 2.3) ([1]; Example 1, pH 2.3, two values = mixture of diastereomers) | logP [1, 2] | chromatographic logP [1, 3] | chromatographic logP ([1]; pH 2.3, text of Example 1, pH 2.3, two values = mixture of diastereomers, read-out: log P (pH 2.3)) | Structure (SMILES) | Efficacy in % (Venturia inaequalis) [%] | Efficacy in % (Podosphaera leucotricha) [%] | Efficacy in % (Botrytis cinerea) [%] | pest or weed control at 500 g/ha (Puccinia recondita) [%] | Efficacy in % (Alternaria solani) [%]
1 | 4.53 | 4.53 | 4.45 | 4.45 | Cc1nc(C(F)F)c(C(=O)NC2CCCCC2C(C)CC(C)C)s1 (centres unmarked) [I-c-4, 4-(difluoromethyl)-N-[2-(1,3-dimethylbutyl)cyclohexyl]-2-methyl-1,3-thiazole-5-carboxamide] | 98 | 100 | 95 | 100 | 100
2 | – | 4.23 | 4.12 | – | CC(C)CC(C)C1CCCCC1NC(=O)c1nccnc1Cl (centres unmarked) [I-c-5] | 100 | 100 | 99 | 100 | 100
3 | – | 4.28 | 3.88 | – | CC(C)CC(C)C1CCCCC1NC(=O)c1cn(C)nc1C(F)F (centres unmarked) [I-c-7] | 100 | 100 | 94 | 100 | 100
